Tests used:
[1] = Emission of the complexes in CH3CN upon excitation at 355 nm; format: physicochemical; conditions: room temperature
Description: The absorption of the samples in cuvettes has been measured with a Lambda 800 UV/VIS Spectrometer (PerkinElmer Instruments) and in 96 well plates with a SpectraMax M2 Spectrometer (Molecular Devices). The emission was measured by irradiation of the sample in fluorescence quartz cuvettes (width 1 cm) using a NT342B Nd-YAG pumped optical parametric oscillator (Ekspla) at 355 nm. Luminescence was focused and collected at right angle to the excitation pathway and directed to a Princeton Instruments Acton SP-2300i monochromator equipped with 1200 g/mm grating blazed at 500 nm. As a detector a XPI-Max 4 CCD camera (Princeton Instruments) has been used.
Upon excitation at 355 nm, the emission of the complexes in CH3CN was determined. The maximum of the emission signal was measured between 600-710 nm (Table 1). […] This leads for all investigated complexes to a large Stokes shift implying minimal inference between excitation and luminescence.

[2] = Singlet oxygen measurement, indirect evaluation (RNO reporter absorbance); format: physicochemical; conditions: indirect method, excitation at 450 nm, average of three, +-10%
Description: For the measurement in CH3CN: The samples were prepared in an air-saturated CH3CN solution containing the complex with an absorbance of 0.1 at the irradiation wavelength, N,N-dimethyl-4-nitrosoaniline aniline (RNO, 24 μM) and imidazole (12 mM). For the measurement in PBS buffer: The samples were prepared in an air-saturated PBS solution containing the complex with an absorbance of 0.1 at the irradiation wavelength, N,N-dimethyl-4-nitrosoaniline aniline (RNO, 20 μM) and histidine (10 mM). The samples were irradiated on 96 well plates with an Atlas Photonics LUMOS BIO irradiator for different times. The absorbance of the samples was measured during these time intervals with a SpectraMax M2 Microplate Reader (Molecular Devices). The difference in absorbance (A0-A) at 420 nm for the CH3CN solution or at 440 nm a PBS buffer solution was calculated and plotted against the irradiation times. From the plot the slope of the linear regression was calculated as well as the absorbance correction factor determined. The singlet oxygen quantum yields were calculated using the same formulas as used for the direct evaluation.
Additionally, the DFT calculations were able to characterize the lowest energy absorption band as a MLCT transition with a triplet state. With this in hand, a quantitative evaluation of singlet oxygen (^1O2) was performed to assess the potential of the PSs in PDT, by two methods: 1) direct by measurement of the luminescence of ^1O2, 2) indirect by measurement of the variation in absorbance of a reporter molecule, as described above. In the first method, the efficiency of the production of ^1O2 was assessed by measuring its phosphorescence at 1270 nm. Worthy of note, the possibility of detection in this experiment is affected by its environment as well as the used setup. With the setup used in this study, we could only detect Φ(^1O2) larger than 0.20 based on a low peak-to-noise ratio. In the second method (indirect method), ^1O2 is reacting with imidazole (in CH3CN) and histidine (in PBS buffer) to a trans-annular peroxide adduct. This can further quench the absorbance of the reporter molecule p-nitrosodimethyl aniline (RNO), which has been monitored by UV/VIS spectroscopy. In both methods, the ^1O2 production has been compared with a reference molecule, namely a solution of phenalenone in CH3CN (Φ(^1O2)phenaleone=0.95)^33 and a solution of [Ru(bipy)3]Cl2 in water Φ(^1O2)Ru(bipy)3Cl2=0.22)^31. […] In comparison, the values changed drastically in an aqueous solution. […] They have untypically low Φ(^1O2) values in CH3CN (0.22-0.35) for Ru(II) polypyridyl complexes. Subsequently, the ^1O2 production was also quite low in an aqueous environment.

[3] = In vivo biodistribution in healthy BALB/c mice (ruthenium by ICP-MS); set-up: species or system mouse
Description: Twenty four, 8 week old healthy BALB/c female mice were used in this study. 0.015 mg/ml solution of complex 6 was prepared in Milli-Q water and filtrated (0.2 μm cellulose acetate membrane, VWR). For the introduction of solution of complex 6, IV injection was used (300 μl per mouse). Organ samples, including brain, liver, spleen, kidneys and lung, were collected from treated mice after 2 h, 6 h and 24 h post-injection. Each time six mice were sacrificed. Remaining six animals were used as a control.
For these experiments, we have decided to use the chloride salt of the complex 6 to improve its solubility. The time-dependent biodistribution of this compound in different organs was determined in healthy 8-week-old BALB/c mice according to the above-described method. The amount of ruthenium in the tested samples was assessed using Inductive Coupled Plasma Mass-Spectrometry (ICP-MS). […] After 24 h, the amount of ruthenium in the liver decreased. This is a very promising result that could indicate that complex 6 is metabolized by the liver in living organisms.

Row | Compound | Emission λem [1] [nm] | Singlet oxygen quantum yield Φ(1O2), CH3CN Indirect [2] | Singlet oxygen quantum yield Φ(1O2), PBS indirect [2] | Levels of Ru in harvested organs (brain, liver, spleen, kidneys, lung) ([3]; IV injection, 6 h post injection, chloride salt) | Amount of ruthenium in the liver ([3]; IV injection, after 24 h, chloride salt) | Behaviour of treated animals ([3]; IV injection, chloride salt) | Blood analysis, immune response compared to untreated control ([3]; after 24 h treatment)
1 | F[P-](F)(F)(F)(F)F.F[P-](F)(F)(F)(F)F.[Ru+2].c1ccc(-c2ccccn2)nc1.c1cnc2c(c1)ccc1cccnc12.c1cnc2c(c1)ccc1cccnc12 [Compound 1, (Bipyridine)bis(1,10-phenanthroline)ruthenium(II)hexafluorophosphate] | 600 | 0.54 | 0.46 | – | – | – | –
2 | Cc1ccnc(-c2cc(C)ccn2)c1.F[P-](F)(F)(F)(F)F.F[P-](F)(F)(F)(F)F.[Ru].c1cnc2c(c1)ccc1cccnc12.c1cnc2c(c1)ccc1cccnc12 [Compound 2, (4,4′-Dimethyl-2,2′-bipyridine)bis(1,10-phenanthroline)ruthenium(II)hexafluorophosphate] | 606 | 0.53 | 0.34 | – | – | – | –
3 | (2,2′-bipyridine-4,4′-carboxamide)bis(1,10-phenanthroline)ruthenium(II) hexafluorophosphate [Compound 4] | 654 | 0.59 | 0.26 | – | – | – | –
4 | (4,4′-Dibromo-2,2′-bipyridine)bis(1,10-phenanthroline)ruthenium(II) hexafluorophosphate [Compound 3] | 645 | 0.56 | 0.16 | – | – | – | –
5 | (4,4′-Dimethyl-2,2′-bipyridine)bis(4,7-diphenyl-1,10-phenanthroline)ruthenium(II) hexafluorophosphate [Compound 6] | 623 | 0.63 | 0.03 | only liver had clearly increased levels of Ru | decreased | behave normally, without signs of pain, stress or discomfort | no sign of immune response
6 | ((E,E′)-4,4′-Bis(N,N′-dimethylaminovinyl)-2,2′-bipyridine)bis(1,10-phenanthroline)ruthenium(II) hexafluorophosphate [Compound 5] | 703 | 0.30 | 0.21 | – | – | – | –
7 | ((E,E′)-4,4′-Bis(N,N′-dimethylaminovinyl)-2,2′-bipyridine)bis(4,7-diphenyl-1,10-phenanthroline)ruthenium(II) hexafluorophosphate [Compound 7] | 694 | 0.35 | 0.07 | – | – | – | –

From patent publication US12636366B2, “Ruthenium (II) complexes and conjugates thereof for use as photosensitizer agent in photodynamic therapy” (Paris Sciences et Lettres, priority 2019, dated 2026)
